Results published in US12275686B2, “NO donor compound, preparation method thereof, pharmaceutical composition comprising same, and use thereof” (SOUTHEAST UNIVERSITY, priority 2022, dated 2025).

Assays:
[1] = system: H9c2 cells; test: NO release level in H9c2 cells under normoxia or hypoxia, Griess method; type: cell-based; settings: for NO release (%) / NO release amount (%): H9c2 cells, 4 h; for NO release (%): hypoxia (1% O2); for NO release amount (%): normoxia (21% O2)
Method: H9c2 cells were revived, cultured with DMEM medium, and placed in a carbon dioxide incubator to allow the cells to adhere to the wall for growth. After the cells grew to reach an appropriate density, cells were inoculated in a multi-well plate and placed in the carbon dioxide incubator for culture for 24 h at 37° C., 5% CO2, and saturated humidity until the cells adhered to the wall, the supernatant was discarded, and 2 mL of fresh DMEM medium was added. Then, a certain concentration (5, 10, 15 μM) of compounds and the reference drug of isosorbide dinitrate were added. After culturing in a normoxic incubator (37° C., 21% O2) or an anoxic incubator (37° C., 1% O2) for 4 h, the supernatant was removed, and the cells in the multi-well plate were collected in 1.5 mL centrifuge tubes and centrifuged at 1000 rpm for 5 min, the supernatant was discarded, 1 mL of PBS was added into the centrifuge tubes to resuspend the cells, and the cells were centrifuged again, the PBS was discarded. 100 μL of cell lysis buffer (special for NO measurement) was added to the centrifuge tubes, placed on ice for half a minute, and then centrifuged for 5 min at 4° C. and 13300 rpm, and the supernatant was collected. 50 μL of the supernatant was taken in a 96-well plate, three parallel groups were set for each sample, and 50 μL of Griess reagent I and 50 μL of Griess reagent II were added in sequence. The OD value of each well was measured at 540 nm with a full-wavelength microplate reader, and the NO concentration was calculated using the standard curve, as shown in Tables 1 and 2.

[2] = system: heart of mouse hypoxia model; test: NO release level in the heart of mouse hypoxia model, NO detection kit; type: in vivo; settings: mouse hypoxia model (85 mg/kg isoproterenol), 20 mg/kg intraperitoneally before modeling, FIG. 2
Description: NO detection kit (Biyuntian Biotechnology Co., Ltd., Shanghai), heart tissue homogenate of hypoxia modeling and drug-given mouse, and blank control group mouse, and 6-8-week-old male Kunming mouse.
NO has chemical activity and is rapidly converted into NO3^− and NO2^− in the body, and NO2^− is further converted into NO3^−. NO^3− is reduced to NO2^− […], NO2^− has characteristic absorption at 540 nm, the absorbance is detected at 540 nm by a microplate reader, and the NO concentration is calculated using a standard curve.
• (1) Hypoxia model (85 mg/kg isoproterenol), the drug-given group was intraperitoneally injected with 20 mg/kg compound I1 before hypoxia modeling; • (2) Cardiac tissue homogenate protein was obtained by centrifugation at 12,000 rpm for 15 min; • (3) The working solution in the NO detection kit was prepared, the working solution was added to each group of proteins, after incubation, and each group of proteins was detected with an microplate reader to analyze the NO content in each group, as shown in FIG. 2.

[3] = system: mTORC1 and TSC2-P proteins; test: Expression level of myocardial injury marker proteins in myocardial hypoxia mouse, Western blot; type: in vivo; settings: hypoxia model mouse pretreated with 20 mg/kg, FIG. 3
Description: Western Blot gel preparation kit (Biyuntian Biotechnology Co., Ltd., Shanghai), BCA detection kit for protein quantification (Biyuntian Biotechnology Co., Ltd., Shanghai), ionization buffer, wet transfer solution, primary antibody (anti-TSC2-P, Abgent, 1:1000, A-AP3825a; anti-mTORC1, Abcam, 1:1000, ab120224; anti-GAPDH, Bioworld Technology, 1:500, AP0063), secondary antibody (Goat Anti-Rabbit IgG (H+L) HRP, 1:3000, Bioworld Technology, BS13278), 6-8-week-old male Kunming mouse.
The changes of protein expression levels are analyzed based on Western Blot bands.
• (1) Mouse heart tissue protein was extracted and centrifuged at 12,000 rpm for 15 min to collect the protein, the protein was quantified using a BCA kit, and added to boiling water in loading buffer and cook for 5 min for later use; • (2) SDS-PAGE gel was prepared and the sample was loaded to separate protein bands; • (3) After transferring the protein bands to the PVDF membrane, the membrane was blocked with milk to incubate primary and secondary antibodies in sequence. The protein bands were visualized using a chemiluminescence developer to analyze the changes of protein expression in each group, as shown in FIG. 3.

[4] = system: H9c2 cells; test: Vitality of H9c2 cells under normoxia or hypoxia (CCK8); type: cell-based; settings: 4 h; for improvement on the cell viability: normoxic condition, FIG. 1A
Method: The cells were washed twice with 5 mL PBS, 1 mL trypsin was added to digest the monolayer cultured H9c2 cells, a single cell suspension was prepared with serum-containing culture medium, and 5000-10000 cells per well were inoculated in a 96-well culture plate. The volume of culture medium per well is 100 μL, and the edge wells are filled with sterilized pure water. The culture plate was moved into a carbon dioxide incubator for culture for 24 h at 37° C., 5% CO2, and saturated humidity until the cells adhere to the wall. 100 μL culture medium in the well was aspirated, 50 μL fresh culture medium was added into the well, and different concentrations of compounds and reference drug isosorbide dinitrate were given respectively to the well. 50 μL drug was added to each well, 3 parallel groups and 1 normoxic group without drug addition as control were set, and concentration gradient of the drug is 10, 1, 0.1, 0.01, 0.001 μM. The normoxic group was incubated in a normal incubator at 5% CO2 and 37° C. for 4 h; and the hypoxic group was incubated in a hypoxic incubator (concentration of 02≤1%) at 37° C. for 4 h. After the culture was completed, 10 μL CCK8 reagent was added to each well and the normoxic group and the hypoxic group continued to be cultured in a normoxic incubator for 4 h, and the culture was terminated. The absorbance of each well was measured at 450 nm with a microplate reader to calculate the cell survival rate of cells at different concentrations, as shown in FIGS. 1A and 1B.

| Structure (SMILES) | NO release (%) ([1]; compound 5 μM) | NO release (%) ([1]; compound 10 μM) | NO release (%) ([1]; compound 15 μM) | NO release amount (%) ([1]; compound 5 μM) | NO release amount (%) ([1]; compound 10 μM) | NO release amount (%) ([1]; compound 15 μM) | also measured |
| --- | --- | --- | --- | --- | --- | --- | --- |
| CN(N=O)c1ccc(OC(=O)OCc2ccc([N+](=O)[O-])cc2)cc1 [Compound I1, 4-((methylnitroso)amino) phenyl (4-nitrobenzyl) carbonate] | 25.24 | 24.38 | 20.15 | 0.24 | 0.84 | 0.16 | NO level in the heart [2]: significantly higher than that of the other two groups; anti-myocardial hypoxic damage effect [3]: excellent anti-myocardial hypoxic damage effect; expression of mTORC1 in the hearts ([3]; Western blot): restored to near a level of the normal group |
| CN(N=O)c1ccc(OC(=O)OCc2ccc([N+](=O)[O-])cc2Cl)cc1 [Compound I2, 4-((methylnitroso)amino) phenyl (2-chloro-4-nitrobenzyl) carbonate] | 34.75 | 30.96 | 27.37 | 1.58 | 3.34 | 0.93 | – |
| Cc1cc([N+](=O)[O-])ccc1COC(=O)Oc1ccc(N(C)N=O)cc1 [Compound I3, 4-((methylnitroso)amino) phenyl (2-methyl-4-nitrobenzyl) carbonate] | 40.58 | 45.42 | 43.21 | 0.43 | 0.92 | 0.32 | – |
| CN(N=O)c1ccc(OC(=O)OCc2ccccc2[N+](=O)[O-])cc1 [Compound I4, 4-((methylnitroso)amino) phenyl (2-nitrobenzyl) carbonate] | 20.78 | 20.62 | 18.33 | 1.02 | 2.35 | 0.98 | improvement on the cell viability ([4]; 1 μM): slight improvement on the cell viability |
| CN(N=O)c1ccc(OC(=O)OCc2ccc(Cl)cc2[N+](=O)[O-])cc1 [Compound I5, 4-((methylnitroso)amino) phenyl (2-nitro-4-chlorobenzyl) carbonate] | – | 0.96 | – | – | 0.15 | – | – |
| CN(N=O)c1ccc(OC(=O)OCc2ccc(Br)cc2[N+](=O)[O-])cc1 [Compound I6, 4-((methylnitroso)amino) phenyl (2-nitro-4-bromobenzyl) carbonate] | – | 0.94 | – | – | 0.17 | – | – |
| Cc1ccc(COC(=O)Oc2ccc(N(C)N=O)cc2)c([N+](=O)[O-])c1 [Compound I7, 4-((methylnitroso)amino) phenyl (2-nitro-4-methylbenzyl) carbonate] | – | 1.83 | – | – | 0.12 | – | – |
| CN(N=O)c1ccc(OC(=O)OCc2cc(Cl)ccc2[N+](=O)[O-])cc1 [Compound I8, 4-((methylnitroso)amino) phenyl (2-nitro-5-chlorobenzyl) carbonate] | – | 0.93 | – | – | 0.27 | – | – |
| Cc1ccc([N+](=O)[O-])c(COC(=O)Oc2ccc(N(C)N=O)cc2)c1 [Compound I9, 4-((methylnitroso)amino) phenyl (2-nitro-5-methylbenzyl) carbonate] | – | 0.95 | – | – | 0.23 | – | – |
| O=[N+]([O-])O[C@H]1CO[C@H]2[C@@H]1OC[C@H]2O[N+](=O)[O-] [Isosorbide dinitrate, isosorbide dinitrate] | – | – | – | – | – | – | NO release amount ([1]; hypoxia condition, different concentrations (5, 10, 15 μM)): less than that under the normoxia condition; viability of hypoxic cells ([4]; hypoxic condition (O2≤1%), 0.001-10 μM, FIG. 1B): a certain improvement on the cell viability at high concentration; improvement on the cell viability ([4]; 0.001-10 μM): does not improve the cell viability |
